Experimental data: US20040101827A1, “Methods of infection with hepatitis c virus” (priority 2000, published 2004)

System: HCV
Assay: Yield of HCV (HCV RNA level) in culture supernatant of HCV cDNA-introduced IMY42-5 cells, real-time detection RT-PCR
Type: cell-based, hepatitis C virus
Details: ribavirin 0, 25, 50, 100, 200 μM added simultaneously with Tam, cultured for 2 days (FIG. 10)
Protocol: IMY42-5 cells were prepared by incorporating into IMY-N9 cells, pCALN/HCV RBZ and CAG-Mer-Cre-Mer (Nucleic Acids Res., 1996, 24(4), 543-548) that expresses active Cre recombinant enzyme by adding tamoxifen co-expressed constitutively therein. When tamoxifen acts on the cells, the stuffer region of pCALN/HCV RBZ was looped out and HCV cDNA was expressed.
IMY42-5 cells (2.5×10^5/ml) were inoculated, 100 μl/well in a 96-well plate, and then cultured overnight at 37° C. under 5% CO2 atmosphere. Then 4-hydroxi-tamoxifen (Tam) was added at a concentration of 100 nM. On the next day and 3 days after the addition of Tam, the culture supernatant was collected. RNA in the culture supernatant was extracted using ISOGEN-LS (Wako Pure Chemical Industries, Ltd.), and then HCV RNA levels were quantified by the Real-time detection RT-PCR (Takeuchi T. et al; Gastroenterology 1999; 116: 636-642) method.
CsA (100, 10, 1 and 0 nM) was added simultaneously with the addition of Tam to IMY42-5 cells. The cells were cultured for 3 days, and then HCV RNA levels in the culture supernatant was measured by Real-time detection RT-PCR.
Ribavirin (0, 25, 50, 100, 200 μM) was added simultaneously with the addition of Tam to IMY42-5 cells. The cells were cultured for 2 days, and then HCV RNA levels in the culture supernatant were measured.

NC(=O)c1ncn([C@@H]2O[C@H](CO)[C@@H](O)[C@H]2O)n1 [Ribavirin, ribavirin]
HCV RNA levels in the culture supernatant (yield of virus): no decrease
